Results reported in patent publication US12673944B2, “Compounds having inhibitory activity against glucosylceramide synthase or pharmaceutically acceptable salt thereof, processes for preparing the same, and pharmaceutical compositions comprising the same” (YUHAN CORPORATION, priority 2019, dated 2026).

Assays:
[1] = test system: GM1 production in Jurkat cells; test: cells; assay type: cell-based; details: Homo sapiens, Jurkat, 72 h
[2] = target: T1, glucosylceramide synthase (GCS) (Homo sapiens, UniProt Q16739); test: GCS enzyme inhibition assay (A549 cell lysate, NBD C6-ceramide, HPLC fluorescence); assay type: biochemical; details: inhibitory activity against GCS, 37° C., 90 minutes
T1 construct: The obtained supernatant was used; host or cells: A549 cells (lysate supernatant after sonication)
T1 sequence (Q16739 1-394): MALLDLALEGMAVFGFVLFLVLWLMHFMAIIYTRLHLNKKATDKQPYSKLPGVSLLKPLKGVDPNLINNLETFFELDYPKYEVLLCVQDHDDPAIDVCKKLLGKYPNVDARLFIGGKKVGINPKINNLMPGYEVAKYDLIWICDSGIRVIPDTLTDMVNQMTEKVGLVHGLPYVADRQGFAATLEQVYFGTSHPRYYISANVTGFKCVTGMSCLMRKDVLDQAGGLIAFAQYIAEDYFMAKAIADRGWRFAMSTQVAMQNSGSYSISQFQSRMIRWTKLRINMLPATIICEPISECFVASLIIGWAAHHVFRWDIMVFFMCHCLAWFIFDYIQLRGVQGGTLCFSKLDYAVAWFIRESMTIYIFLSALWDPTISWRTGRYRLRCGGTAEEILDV
How it was run: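 A549 cell lysate (50 mM HEPES pH 7.3) served as GCS source; reactions ran 90 min at 37° C, were stopped with chloroform/methanol and lipids extracted. Activity taken as GlcCer/(Cer+GlcCer) peak area, normalised between DMSO and ibiglustat controls.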

Row | SMILES | IC50 [1] | IC50 [2]
1 | O=C(NC1CCOc2ccc(-c3ccccc3OC(F)(F)F)cc21)O[C@@H]1CN2CCC1CC2 (stereo partly drawn) [Example 96, (S)-quinuclidin-3-yl (6-(2-(trifluoromethoxy)phenyl)chroman-4-yl)carbamate] | 78.9 nM | 8.55 nM
2 | CSc1ccc(-c2ccc3c(c2)C(NC(=O)O[C@@H]2CN4CCC2CC4)CCO3)cc1 (stereo partly drawn) [Example 97, (S)-quinuclidin-3-yl (6-(4-(methylthio)phenyl)chroman-4-yl)carbamate] | 502 nM | 11.5 nM
3 | CSc1cccc(-c2ccc3c(c2)C(NC(=O)O[C@@H]2CN4CCC2CC4)CCO3)c1 (stereo partly drawn) [Example 98, (S)-quinuclidin-3-yl (6-(3-(methylthio)phenyl)chroman-4-yl)carbamate] | 525 nM | 14.9 nM
4 | Cc1ccc(-c2ccc3c(c2)C(NC(=O)O[C@@H]2CN4CCC2CC4)CCO3)cc1 (stereo partly drawn) [Example 99, (S)-quinuclidin-3-yl (6-(p-tolyl)chroman-4-yl)carbamate] | 322 nM | 19.2 nM
5 | N#Cc1ccc(-c2ccc3c(c2)C(NC(=O)O[C@@H]2CN4CCC2CC4)CCO3)cc1 (stereo partly drawn) [Example 100, (S)-quinuclidin-3-yl (6-(4-cyanophenyl)chroman-4-yl)carbamate] | 289 nM | 7.1 nM
6 | CC1(C)COc2ccc(-c3cccc(F)c3)cc2C1NC(=O)O[C@@H]1CN2CCC1CC2 (stereo partly drawn) [Example 101, (S)-quinuclidin-3-yl (6-(3-fluorophenyl)-3,3-dimethylchroman-4-yl)carbamate] | 65.9 nM | 9.2 nM
7 | CC1(C)COc2cc(-c3cccc(F)c3)ccc2C1NC(=O)O[C@@H]1CN2CCC1CC2 (stereo partly drawn) [Example 102, (S)-quinuclidin-3-yl (7-(3-fluorophenyl)-3,3-dimethylchroman-4-yl)carbamate] | 2.81 nM | 0.8 nM
8 | CC1(C)COc2cc(-c3cccc(Cl)c3)ccc2C1NC(=O)O[C@@H]1CN2CCC1CC2 (stereo partly drawn) [Example 103, (S)-quinuclidin-3-yl (7-(3-chlorophenyl)-3,3-dimethylchroman-4-yl)carbamate] | 1.43 nM | 1 nM
9 | CC1(C)COc2cc(-c3cccc(C(F)(F)F)c3)ccc2C1NC(=O)O[C@@H]1CN2CCC1CC2 (stereo partly drawn) [Example 104, (S)-quinuclidin-3-yl (3,3-dimethyl-7-(3-(trifluoromethyl)phenyl)chroman-4-yl)carbamate] | 1.02 nM | 1 nM
10 | CC1(C)COc2cc(-c3cccc(OC(F)(F)F)c3)ccc2C1NC(=O)O[C@@H]1CN2CCC1CC2 (stereo partly drawn) [Example 105, (S)-quinuclidin-3-yl (3,3-dimethyl-7-(3-(trifluoromethoxy)phenyl)chroman-4-yl)carbamate] | 1.41 nM | 1.11 nM
11 | COCOc1ccccc1-c1ccc2c(c1)OCC(C)(C)C2NC(=O)O[C@@H]1CN2CCC1CC2 (stereo partly drawn) [Example 106, (S)-quinuclidin-3-yl (7-(2-(methoxymethoxy)phenyl)-3,3-dimethylchroman-4-yl)carbamate] | 0.22 nM | 1.17 nM
12 | COCOc1cccc(-c2ccc3c(c2)OCC(C)(C)C3NC(=O)O[C@@H]2CN3CCC2CC3)c1 (stereo partly drawn) [Example 107, (S)-quinuclidin-3-yl (7-(3-(methoxymethoxy)phenyl)-3,3-dimethylchroman-4-yl)carbamate] | 0.1 nM | 1.17 nM
13 | COCOc1ccc(-c2ccc3c(c2)OCC(C)(C)C3NC(=O)O[C@@H]2CN3CCC2CC3)cc1 (stereo partly drawn) [Example 108, (S)-quinuclidin-3-yl (7-(4-(methoxymethoxy)phenyl)-3,3-dimethylchroman-4-yl)carbamate] | 0.46 nM | 0.69 nM
14 | COCCOc1ccccc1-c1ccc2c(c1)OCC(C)(C)C2NC(=O)O[C@@H]1CN2CCC1CC2 (stereo partly drawn) [Example 109, (S)-quinuclidin-3-yl (7-(2-(2-methoxyethoxy)phenyl)-3,3-dimethylchroman-4-yl)carbamate] | 2 nM | 2.14 nM
15 | COCCOc1cccc(-c2ccc3c(c2)OCC(C)(C)C3NC(=O)O[C@@H]2CN3CCC2CC3)c1 (stereo partly drawn) [Example 110, (S)-quinuclidin-3-yl (7-(3-(2-methoxyethoxy)phenyl)-3,3-dimethylchroman-4-yl)carbamate] | 0.12 nM | 1.3 nM
16 | COCCOc1ccc(-c2ccc3c(c2)OCC(C)(C)C3NC(=O)O[C@@H]2CN3CCC2CC3)cc1 (stereo partly drawn) [Example 111, (S)-quinuclidin-3-yl (7-(4-(2-methoxyethoxy)phenyl)-3,3-dimethylchroman-4-yl)carbamate] | 1.27 nM | 1.93 nM

Row | SMILES | IC50 [1] | IC50 [2]
17 | CC1(C)COc2cc(-c3cccc(C(F)F)c3)ccc2C1NC(=O)O[C@@H]1CN2CCC1CC2 (stereo partly drawn) [Example 112, (S)-quinuclidin-3-yl (7-(3-(difluoromethyl)phenyl)-3,3-dimethylchroman-4-yl)carbamate] | 0.55 nM | 0.53 nM
18 | Cc1ccc(-c2ccc3c(c2)OCC(C)(C)C3NC(=O)O[C@@H]2CN3CCC2CC3)c2cccnc12 (stereo partly drawn) [Example 113, (S)-quinuclidin-3-yl (3,3-dimethyl-7-(8-methylquinolin-5-yl)chroman-4-yl)carbamate] | 13 nM | 2.92 nM
19 | COc1cc(OC)cc(-c2ccc3c(c2)OCC(C)(C)C3NC(=O)O[C@@H]2CN3CCC2CC3)c1 (stereo partly drawn) [Example 114, (S)-quinuclidin-3-yl (7-(3,5-dimethoxyphenyl)-3,3-dimethylchroman-4-yl)carbamate] | 2.81 nM | 0.75 nM
20 | COc1ccc(-c2ccc3c(c2)OCC(C)(C)C3NC(=O)O[C@@H]2CN3CCC2CC3)cc1C (stereo partly drawn) [Example 115, (S)-quinuclidin-3-yl (7-(4-methoxy-3-methylphenyl)-3,3-dimethylchroman-4-yl)carbamate] | 3.72 nM | 1.88 nM
21 | COc1ccc(-c2ccc3c(c2)OCC(C)(C)C3NC(=O)O[C@@H]2CN3CCC2CC3)c(C)c1 (stereo partly drawn) [Example 116, (S)-quinuclidin-3-yl (7-(4-methoxy-2-methylphenyl)-3,3-dimethylchroman-4-yl)carbamate] | 1.16 nM | 1.39 nM
22 | COc1ccc(-c2ccc3c(c2)OCC(C)(C)C3NC(=O)O[C@@H]2CN3CCC2CC3)cc1Cl (stereo partly drawn) [Example 117, (S)-quinuclidin-3-yl (7-(3-chloro-4-methoxyphenyl)-3,3-dimethylchroman-4-yl)carbamate] | 4.43 nM | 1.66 nM
23 | COc1ccc(-c2ccc3c(c2)OCC(C)(C)C3NC(=O)O[C@@H]2CN3CCC2CC3)cc1F (stereo partly drawn) [Example 118, (S)-quinuclidin-3-yl (7-(3-fluoro-4-methoxyphenyl)-3,3-dimethylchroman-4-yl)carbamate] | 3.63 nM | 1.63 nM
24 | COc1ccc(-c2ccc3c(c2)OCC(C)(C)C3NC(=O)O[C@@H]2CN3CCC2CC3)c(Cl)c1 (stereo partly drawn) [Example 119, (S)-quinuclidin-3-yl (7-(2-chloro-4-methoxyphenyl)-3,3-dimethylchroman-4-yl)carbamate] | 1.25 nM | 0.65 nM
25 | COc1cc(F)ccc1-c1ccc2c(c1)OCC(C)(C)C2NC(=O)O[C@@H]1CN2CCC1CC2 (stereo partly drawn) [Example 120, (S)-quinuclidin-3-yl (7-(4-fluoro-2-methoxyphenyl)-3,3-dimethylchroman-4-yl)carbamate] | 6.41 nM | 0.71 nM
26 | COc1cccc(Cl)c1-c1ccc2c(c1)OCC(C)(C)C2NC(=O)O[C@@H]1CN2CCC1CC2 (stereo partly drawn) [Example 121, (S)-quinuclidin-3-yl (7-(2-chloro-6-methoxyphenyl)-3,3-dimethylchroman-4-yl)carbamate] | 15.9 nM | 2.67 nM
27 | COc1cccc(F)c1-c1ccc2c(c1)OCC(C)(C)C2NC(=O)O[C@@H]1CN2CCC1CC2 (stereo partly drawn) [Example 122, (S)-quinuclidin-3-yl (7-(2-fluoro-6-methoxyphenyl)-3,3-dimethylchroman-4-yl)carbamate] | 3.75 nM | 0.96 nM
28 | COc1cc(F)c(-c2ccc3c(c2)OCC(C)(C)C3NC(=O)O[C@@H]2CN3CCC2CC3)cc1F (stereo partly drawn) [Example 123, (S)-quinuclidin-3-yl (7-(2,5-difluoro-4-methoxyphenyl)-3,3-dimethylchroman-4-yl)carbamate] | 4.24 nM | 0.79 nM
29 | CCOc1ccc(-c2ccc3c(c2)OCC(C)(C)C3NC(=O)O[C@@H]2CN3CCC2CC3)cc1F (stereo partly drawn) [Example 124, (S)-quinuclidin-3-yl (7-(4-ethoxy-3-fluorophenyl)-3,3-dimethylchroman-4-yl)carbamate] | 4.47 nM | 0.75 nM
30 | COc1ccc(-c2ccc3c(c2)OCC(C)(C)C3NC(=O)O[C@@H]2CN3CCC2CC3)c(OC)c1 (stereo partly drawn) [Example 125, (S)-quinuclidin-3-yl (7-(2,4-dimethoxyphenyl)-3,3-dimethylchroman-4-yl)carbamate] | 3.85 nM | 0.86 nM
31 | COc1ccc(OC)c(-c2ccc3c(c2)OCC(C)(C)C3NC(=O)O[C@@H]2CN3CCC2CC3)c1 (stereo partly drawn) [Example 126, (S)-quinuclidin-3-yl (7-(2,5-dimethoxyphenyl)-3,3-dimethylchroman-4-yl)carbamate] | 0.85 nM | 0.58 nM
32 | COc1cccc(-c2ccc3c(c2)OCC(C)(C)C3NC(=O)O[C@@H]2CN3CCC2CC3)c1OC (stereo partly drawn) [Example 127, (S)-quinuclidin-3-yl (7-(2,3-dimethoxyphenyl)-3,3-dimethylchroman-4-yl)carbamate] | 14.2 nM | 2.11 nM
